What was measured:
[1] = tested on: Copepodids (juvenile sea lice stage of Lepeophtheirus salmonis); assay: Juvenile sea lice contact assay; settings: Lepeophtheirus salmonis, 24 h, read-out: Sea lice inhibition (% of dead+damaged copepodids)
Method: Copepodids (juvenile sea lice stage of Lepeophtheirus salmonis) were exposed to seawater spiked with declining concentrations of a test compound (dissolved in a DMSO sea-water mixture). Sea lice inhibition (% of dead+damaged copepodids) was assessed after approximately 24 hours of continuous exposure. The vitality of used parasites was confirmed in a negative (solvent) control group.

[2] = tested on: Tick nymphs (stage III, Ornithodoros moubata); assay: Tick feeding assay; settings: read-out: Tick inhibition (% of damaged+dead ticks at molting-assessment)
Method: Tick nymphs (stage III, Ornithodoros moubata) were fed on artificial membranes with blood spiked with declining concentrations of a test compound (dissolved in a DMSO-emulsifier-blood mixture). Fed nymphs were incubated for around 2-3 weeks to enable tick molting into the next stage. Tick inhibition (i.e, % of damaged+dead ticks at molting-assessment per test concentration) was assessed. The vitality of used parasites was confirmed in negative control groups (i.e., an untreated control and a solvent control).

[3] = tested on: Rhipicephalus sanguineus or Haemaphysalis elliptica ticks; assay: Dog - efficacy against ticks; assay type: in vivo; settings: for therapeutic efficacy against ticks (active = efficacy ≥80 percent): D2
Method: (§1) Beagle dogs were infested (whole body) with 80 Ctenocephalides felis fleas and 50 Rhipicephalus sanguineus or Haemaphysalis elliptica ticks (sex ratio 1:1) two days before the treatment day (Day 0), and repeatedly thereafter. Dogs of treatment groups were treated with 10 mg/kg bodyweight of a test compound orally (compound weighed in gelatin capsule), topically (spot-on, DMA 92%/DEET 8%) or subcutaneously (PEG 200 90%/water for injection 10%). Dogs of the negative control group received only an empty gelatin capsule orally and the spot-on formulation excipients topically.
(§2) Compounds with efficacy ≥80 percent were found active.

[4] = tested on: Rhipicephalus microplus tick larvae; assay: Tick larvae contact assay; settings: read-out: Tick inhibition (% of damage+dead ticks)
Method: Tick larvae (Rhipicephalus microplus) were immersed for approximately 3 minutes in declining concentrations of a test compound (dissolved in a DMSO-emulsifier-deionized water mixture). Tick inhibition (% of damage+dead ticks per test concentration) was assessed approximately 24 hours after contact exposure. The vitality of used parasites was confirmed in negative control groups (i.e. an untreated control and a solvent control).

[5] = tested on: Ctenocephalides felis fleas; assay: Dog - efficacy against fleas; assay type: in vivo; settings: for therapeutic efficacy against fleas (active = efficacy ≥80 percent): D2
Method: as §1, §2

[6] = tested on: juvenile soft ticks (Ornithodoros moubata); assay: Guinea pig - efficacy against argaside tick; assay type: in vivo
Procedure, shortened: (§3)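 Guinea pigs given 5 mg/kg test compound orally (gavage) or s.c. in 10% DMF/emulsifier plus 90% water for injection, with local co-infestations of Ornithodoros moubata juveniles and Cimex lectularius at several post-treatment times. Engorged parasites scored dead/damaged about 24 h after collection; % inhibition versus pretreatment baseline by modified Schneider-Orelli formula.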

Rhipicephalus microplus = assay: Cattle - efficacy against one-host tick; assay type: in vivo
Method: Cattle were infested (whole body) with up to 3000 Rhipicephalus microplus larvae two or three times per week before and after the treatment day (Day 0). Cattle of treatment groups were treated subcutaneously or topically (spray or pour-on) at a dose of 1 mg/kg bodyweight of a test compound. As subcutaneous formulation either 2-pyrrolidon 50%/Tween 80 50% or NMP 60%/PEG300 40% was used. As topical formulation either a spray solution (DMF/Emulsifier 2%/tap water 98%) (Compound 4) or a DMA 92%/DEET 8% pour-on solution (all other compounds) or a pour-on solution containing Imwitor 988 (20%)+Miglyol 840 (QS) (Compound 453 and Compound 466) or a pour-on solution containing Miglyol 840 (QS) (Compound 453) was used. Cattle of the negative control group received only the formulation excipients of the respective administration route.
Fully engorged female ticks dropping from cattle were collected daily after treatment and counted in treatment and control groups. Efficacy was expressed using the standard ADEQ analysis method (ADEQ calculation in accordance with WAAVP guidelines for evaluating the efficacy of acaricides against ticks on ruminants; Veterinary parasitology 136 (2006) 29-43). Compounds with efficacy ≥80 percent were found active/effective. Onset of efficacy means the first Day with efficacy ≥80 percent. Duration of efficacy means the last Day with efficacy ≥80 percent.

[7] = tested on: Mobile stages of sea lice (pre-adults, adults of Lepeophtheirus salmonis); assay: Adult sea lice contact assay; settings: read-out: EC50 (sea lice inhibition, dead+damaged)
Method: Mobile stages of sea lice (i.e., pre-adults, adults of Lepeophtheirus salmonis) were exposed to seawater spiked with declining concentrations of a test compound (dissolved in a PEG sea-water mixture). Sea lice inhibition (% of dead+damaged sea lice) was assessed after approximately 1 and 24 hours of continuous exposure in comparison to a negative (solvent) control group.

[8] = tested on: Adult fleas (Ctenocephalides felis); assay: Flea feeding assay; settings: 48 h, read-out: flea inhibition (% of dead+damaged fleas)
Method: Adult fleas (Ctenocephalides felis) of defined age were fed on artificial membranes with blood spiked with declining concentrations of a test compound (dissolved in a DMSO-emulsifier-blood mixture). After approximately 48 hours of continuous feeding, flea inhibition (i.e., % of dead+damaged fleas per test concentration) was assessed. The vitality of used parasites was confirmed in negative control groups (i.e., an untreated control and a solvent control).

[9] = tested on: Fly larvae I (Lucilia cuprina); assay: Fly larvae contact/feeding assay; settings: 48 h, read-out: Inhibition of fly larvae development
Method: Fly larvae I (Lucilia cuprina) were grown in medium spiked with declining concentrations of a test compound (dissolved in a DMSO-emulsifier-deionized water mixture). Inhibition of fly larvae development (%) was assessed after approximately 48 hours of continuous exposure. The vitality of used parasites was confirmed in negative control groups (i.e., an untreated control and a solvent control).

[10] = tested on: bed bugs (Cimex lectularius); assay: Guinea pig - efficacy against bed bug; assay type: in vivo; settings: for effective to control bed bugs: 5 mg/kg
Procedure, shortened: as §3

[11] = 5 mg/kg subcutaneous, after 7 days
[12] = 5 mg/kg subcutaneous, after 10 days
[13] = 5 mg/kg subcutaneous, after 14 days
[14] = 5 mg/kg subcutaneous, after 17 days
[15] = 1 mg/kg topical (Compound 4: spray solution; others: DMA 92%/DEET 8% pour-on)

## O=C(Nc1ccc(F)cc1)c1cc(NC(=O)[C@H]2[C@H](c3cc(Cl)cc(Cl)c3)C2(Cl)Cl)ccc1F (racemic) [Compound 4]
[1]
  inhibition at 0.1 µM: ≥ 80%
[2]
  inhibition at 1 ppm: 80%
[3]; 10 mg/kg
  efficacy against ticks in dogs (conclusion): therapeutic efficacy
[3]; 10 mg/kg oral
  therapeutic efficacy against ticks (active = efficacy ≥80 percent): active
[3]; 10 mg/kg subcutaneous
  therapeutic efficacy against ticks (active = efficacy ≥80 percent): active
[4]
  inhibition at 25 µM: ≥ 80%
  inhibition at 100 ppm: 80%
[5]; 10 mg/kg
  efficacy against fleas in dogs (conclusion): therapeutic efficacy
[5]; 10 mg/kg oral
  therapeutic efficacy against fleas (active = efficacy ≥80 percent): active
[5]; 10 mg/kg subcutaneous
  therapeutic efficacy against fleas (active = efficacy ≥80 percent): active
[5]; 10 mg/kg subcutaneous, repeated infestations
  active against fleas up to (efficacy ≥80 percent): 86 D
[6]; 5 mg/kg oral, Day 0
  activity against tick nymphs (≥80% inhibition, killed+damaged): immediate activity
[6]; 5 mg/kg oral, after 7 days
  activity against tick nymphs (≥80% inhibition, killed+damaged): activity
[6]; 5 mg/kg oral, after 10 days
  activity against tick nymphs (≥80% inhibition, killed+damaged): activity
[6]; 5 mg/kg oral, after 14 days
  activity against tick nymphs (≥80% inhibition, killed+damaged): activity
[6]; 5 mg/kg subcutaneous, Day 0
  activity against tick nymphs (≥80% inhibition, killed+damaged): immediate activity
[6]; [11]
  activity against tick nymphs (≥80% inhibition, killed+damaged): activity
[6]; [12]
  activity against tick nymphs (≥80% inhibition, killed+damaged): activity
[6]; [13]
  activity against tick nymphs (≥80% inhibition, killed+damaged): activity
[6]; [14]
  activity against tick nymphs (≥80% inhibition, killed+damaged): activity
[6]; 5 mg/kg, at least until Day 10, both administration routes (oral, subcutaneous)
  effective to control ticks: 100%
[6]; 5 mg/kg, for at least one week, both administration routes
  effective to control ticks: 100%
[6]; 5 mg/kg, ticks and bed bugs
  duration of efficacy, subcutaneous compared with oral administration: longer duration of efficacy
Rhipicephalus microplus; 1 mg/kg subcutaneous
  duration of efficacy (last Day with efficacy ≥80 percent): 38 days
  onset of efficacy (first Day with efficacy ≥80 percent): 2 days
Rhipicephalus microplus; [15]
  duration of efficacy (last Day with efficacy ≥80 percent): 58 days
  onset of efficacy (first Day with efficacy ≥80 percent): 3 days
[7]
  EC50: 10 to 25 nM
[8]
  inhibition at 1 ppm: 80%
[9]
  inhibition at 100 ppm: 80%
[10]; 5 mg/kg oral, Day 0
  activity against bed bugs (≥80% inhibition, killed+damaged): immediate activity
[10]; 5 mg/kg oral, after 7 days
  activity against bed bugs (≥80% inhibition, killed+damaged): activity
[10]; 5 mg/kg oral, after 10 days
  activity against bed bugs (≥80% inhibition, killed+damaged): activity
[10]; 5 mg/kg oral, after 14 days
  activity against bed bugs (≥80% inhibition, killed+damaged): activity
[10]; 5 mg/kg subcutaneous, Day 0
  activity against bed bugs (≥80% inhibition, killed+damaged): immediate activity
[10]; [11]
  activity against bed bugs (≥80% inhibition, killed+damaged): activity
[10]; [12]
  activity against bed bugs (≥80% inhibition, killed+damaged): activity
[10]; [13]
  activity against bed bugs (≥80% inhibition, killed+damaged): activity
[10]; [14]
  activity against bed bugs (≥80% inhibition, killed+damaged): activity
[10]; at least until Day 10, both administration routes (oral, subcutaneous)
  effective to control bed bugs: 100%
[10]; for at least one week, both administration routes
  effective to control bed bugs: 100%

Source: US20240315993A1, “ANTIPARASITIC COMPOUNDS” (Intervet Inc., priority 2021, published 2024)
